Source: US8048683B2, “Insect repellent and process for identifying other insect repellent molecules” (Centre National de la Recherche Scientifique, priority 2006, dated 2011)

Experiments:
[1] = biological target: T1, DmX receptor (DmXR) (Drosophila melanogaster, UniProt Q70GQ8); experiment: Pharmacological test: DmXR activation in transfected HEK cells, measured by accumulation of inositol triphosphate; details: FIG. 1
T1 sequence (Q70GQ8 1-1073): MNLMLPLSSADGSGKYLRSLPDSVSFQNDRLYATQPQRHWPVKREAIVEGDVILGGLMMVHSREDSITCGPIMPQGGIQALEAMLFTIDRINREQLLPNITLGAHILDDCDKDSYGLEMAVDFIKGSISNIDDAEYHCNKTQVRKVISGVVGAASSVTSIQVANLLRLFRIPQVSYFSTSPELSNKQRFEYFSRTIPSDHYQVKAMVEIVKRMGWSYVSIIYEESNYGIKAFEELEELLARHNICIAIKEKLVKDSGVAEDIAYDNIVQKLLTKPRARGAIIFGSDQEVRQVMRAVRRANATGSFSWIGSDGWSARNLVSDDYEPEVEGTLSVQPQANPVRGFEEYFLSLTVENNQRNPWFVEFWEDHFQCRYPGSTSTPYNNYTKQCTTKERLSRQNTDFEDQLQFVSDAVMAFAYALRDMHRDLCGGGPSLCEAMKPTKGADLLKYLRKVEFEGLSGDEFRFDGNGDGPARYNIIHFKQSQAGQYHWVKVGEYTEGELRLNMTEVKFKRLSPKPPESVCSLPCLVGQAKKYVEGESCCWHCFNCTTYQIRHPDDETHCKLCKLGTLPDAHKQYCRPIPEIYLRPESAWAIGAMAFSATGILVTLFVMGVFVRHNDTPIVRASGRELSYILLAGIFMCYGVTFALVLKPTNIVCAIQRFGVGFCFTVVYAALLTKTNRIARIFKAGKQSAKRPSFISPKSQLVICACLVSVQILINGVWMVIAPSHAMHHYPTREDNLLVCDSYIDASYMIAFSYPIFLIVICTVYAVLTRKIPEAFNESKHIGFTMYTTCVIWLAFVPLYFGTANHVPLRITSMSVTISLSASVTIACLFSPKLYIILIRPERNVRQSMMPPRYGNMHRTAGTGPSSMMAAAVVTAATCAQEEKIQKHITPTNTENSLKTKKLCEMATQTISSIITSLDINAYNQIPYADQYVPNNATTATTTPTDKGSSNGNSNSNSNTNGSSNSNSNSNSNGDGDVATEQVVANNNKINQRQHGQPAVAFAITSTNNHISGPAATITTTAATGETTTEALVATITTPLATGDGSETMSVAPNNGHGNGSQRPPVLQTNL

[2] = system: drosophilas; experiment: Gustatory choice (feeding preference) behavioral test with two dyes; type: in vivo, Drosophila melanogaster
Experimental: The test used measures the feeding preference in a choice with 2 possibilities materialized by two dyes, on the one hand erioglaucine (blue) and, on the other hand, sulforhodamine (red).
The erioglaucine is used at a final concentration of 5 mg/ml, dissolved in double-distilled water, pH 7.5. The sulforhodamine is used at a final concentration of 20 mg/ml, dissolved in double-distilled water, pH 7.5. The 2 dye solutions also contain sucrose fat a final concentration of 5 mM). The agonists (pH=7.5) used are added, an the final concentrations indicated on the figures, to the solution containing the erioglaucine.
To prepare a solid medium, these various compounds are added to a molten solution of agarose (0.3% final concentration, 45° C.) and deposited in a 96-well cell culture plate (Corning Incorporated, ref 3599) such that the wells alternately contain 200 μl of blue dye then 200 μl of red dye (see FIG. 4). The plates are left at ambient temperature for 2 hours in order for the agarose to solidify, and are then used for a feeding preference test.
For each behavioral test, 60 2- to 5-day-old drosophilas are deprived of food for 24 hours on cotton wool soaked with distilled water before the test and are then placed in a box containing a 96-well plate prepared as indicated above. The drosophilas are left in the dark for 2 hours, at 25° C., at a humidity of 30 to 50%. The drosophilas are then rapidly collected by anesthesia with CO2 and then frozen at −20° C. for 20 minutes. In order to determine the food intake, the flies are counted according to the color of the content of their digestive tube. The results are expressed as % of flies which have eaten a given medium relative to the total number of flies which have eaten, according to the formula: % blue=number of flies with a blue digestive tube, divided by the number of flies which have eaten (sum of the flies with a blue, violet or red digestive tube), multiplied by 100.
At least 3 independent tests were carried out for each point indicated on the figures, and the results of the tests were counted blind for the majority of the points. Only the tests in which more than […] of the flies had eaten were included in the results and in the statistical tests (T test and ANOVA). […]
The flies are counted according to the color of the content of their digestive tube.
The results are expressed as percentage of flies which have eaten a given medium, relative to the total number of flies which have eaten. % blue=N blue/(N blue+N violet+N red)×100 […]

N=C(N)NOCC[C@H](N)C(=O)O [L-canavanine, L-2-amino-4-(guanidinooxy)butyric acid]
in vitro activation of the DmX receptor [1]: activated | effect on sugary solution in behavioral test ([2]; 40 mM, 5 mM sucrose): very highly repellent | concentration at which a plateau of repellent effect is reached ([2]; additional experiments): around 30 mM | repulsion in DmX receptor function loss mutants ([2]; mutant drosophilas m1 and m2 (DmXR-)): no longer have any repulsion | repellent effect in chemosensory behavioral test ([2]; wild-type drosophila, sugary solution (5 mM sucrose)): highly repellent
